Results published in US20240165135A1, “COMPOSITIONS AND METHODS FOR THE TREATMENT OF CANCER” (The State of Israel, Ministry of Agriculture & Rural …, priority 2021, published 2024).

Columns and labels:
HTB75 cells [1] = assay: Combined treatments with chemotherapy drugs on HTB75 viability, Bliss-independence model; format: cell-based; details: combination treatments
From the text: FIGS. 23A-C are graphs showing synergistic interactions between fractions of some embodiments of the invention with (FIG. 23A) cisplatin, (FIG. 23B) gemcitabine and (FIG. 23C) niraparib on cell viability of HTB75 cells following combined treatments. Synergy of cytotoxic activity calculated based on Bliss-independence drug interaction model. Synergy is apparent when the experimental (observed) value of cell survival inhibition is higher than the calculated (expected) value. Values of delta of observed minus expected values, calculated based on Bliss model are shown in the Y axis.

[2] = system: ovarian cancer cell line HTB75; assay: XTT cell viability assay on HTB75; format: cell-based; details: for effect of IA, AN or B alone on HTB75 cell viability: 10 μM, 48 h
Description: FIGS. 17A-B show cell viability of HTB75 cells (FIG. 17A) following treatment with crude extract of cannabis strains DQ, Paris, GB-11, GB-14 and GB-18. Cell viability was determined by XTT assay as a function of live cell number. NT is the vehicle treated control (1% v/v methanol). Error bars indicate ±SE (n=3). […] (FIG. 17B) following treatment with C. sativa DQ crude extract at different concentrations for IC50 value calculation from 5P logistic curve fit using GraphPad Prism version 6.1. Error bars indicate ±SE (n=3).
FIGS. 18A-C show cell viability of HTB75 cells following treatment with DQ extract fractions F1-F8, and crude extract. FIG. 18A—Cell viability was determined by XTT assay as a function of live cell number. NT is the vehicle treated control (1% v/v methanol). Error bars indicate ±SE (n=3). […] (FIGS. 18B-C) Cell viability of HTB75 cells following treatment with C. sativa DQ fractions F5 and F7 at different concentrations for IC50 values calculation from 5P logistic curve fit using GraphPad Prism version 6.1. Error bars indicate ±SE (n=3).
(§1) Cell viability assays—Cells were seeded in 96-well plates at density of 2×10^4 per well (100 μL/well) in SFM (for A172) or complete medium (for U87) and were incubated at 37° C. overnight to allow attachment. The following day, cells were treated with plant extracts (n=3), fractions, or cannabinoid standards in volume of 100 μL/well at different concentrations. Solvents used as a vehicle control and doxorubicin was used as a positive control in all the biological assays. Where indicated, CB1 or CB2 inverse agonists, TRPV1 or TRPV2 antagonists or TRPA1 blocker were added along with the indicated treatments at a concentration of 10 μM/mL in complete medium. Treated cells were incubated for 48 h at 37° C. Subsequently, XTT reagents (2,3-bis(2-methoxy-4-nitro-5-sulfophenyl)-5-[(phenylamine)-carbonyl]-2H-tetrazolium inner salt) (20-300-1000; Biological Industries, Israel) were added to the cells for 2 hours at 37° C. in a humidified 5% CO2—95% air atmosphere. Absorbance was recorded by a Synergy H1 hybrid reader photometer (BioTek) at 490 nm with 650 nm of reference wavelength. Cell viability was estimated from the equation: […]
(§2) For dose response assays, data points were connected by non-linear regression lines of the sigmoidal dose-response relation. GraphPad Prism version 6.1 (www(dot)graphpad(dot)com/scientific-software/prism/, GraphPad Software Inc., San Diego, USA) was employed to produce dose-response curves and determination of IC50 values.

A172 GBM cells = assay: XTT cell viability assay on A172; format: cell-based, Human; details: for effect of IA, AN or B alone on A172 cell viability: 10 μM; for IC50: Homo sapiens, A 172, 48 h
Description: Cell cultures—Human glioblastoma A172 (ATCC®CRL-1620™) was cultured in DMEM (01-055-1A, Biological Industries, Israel) and U87MG (U87; ATCC®HTB-14™) in EMEM (01-058-1A; Biological Industries, Israel). Both media were supplemented with 10% fetal bovine serum (FBS, 04-127-1A, Biological Industries, Israel), 1% Pen-Strep, 1% L-Glutamine and 0.02% plasmocin (i.e., complete medium). Cells were incubated at 37° C. in a humidified atmosphere containing 5% CO2—95% air. Serum free media (SFM) was composed of DMEM/F12 (01-170-1A; Biological Industries, Israel), including all the supplements above except for FBS. Neurosphere media for A172 was composed of SFM with 2% B-27; Neurosphere media for U87 was serum-free EMEM without B27. For Glioblastoma stem cells (GSCs) cultures all human materials were used in accordance with the policies of the Henry Ford Hospital Institutional Review Board. Generation of GSCs from fresh GBM specimens and their characterization have been recently described. The GSCs were plated in neurosphere medium (DMEM-F12 1:1, glutamine 10 mM, HEPES buffer 10 mM and sodium bicarbonate 0.025%) supplemented with EGF and bFGF (20 ng/mL).
as §1, §2

A172 cells = assay: Scratch-wound assay, A172 cell migration; format: cell-based, Human; details: 36 hours; F4 20, F4-SM 11.5, F5 20, F5-SM 11.5, Doxo 0.5 μg/mL
Description: Scratch-wound assay—A172 cells were seeded in a 96-well plate at a density of 2×10^4 per well in 100 μL of complete medium. Following 24 hours, cells in each well were scratched perpendicularly across the center of the well with a 200 μL pipette tip to produce a cell-free area for investigating the ability of the cells to migrate and close the gap under different treatments. Immediately following scratching, 100 μL of treatment solution was added. Photos were taken by a CARL ZEISS inverted microscope coupled with a camera at 0, 14, 20, and 36 hours following scratching, and the gap area was measured using ImageJ (version 1.53a). The scratch area, indicated by cells migrated into the scratch was calculated as percent of scratch area at time x from time 0: […]

HTB75 cells [3] = assay: Cell cycle FACS, HTB75; format: cell-based; details: 24 h; F5-SM 17.4 μg/mL, niraparib 4 μg/mL; control 21.4%
Description: (§3) 10^4 cells were analyzed per treatment. Control is vehicle control (1.5% v/v methanol). The treated cells were harvested and analyzed in FACS following annexin V-FITC and PI staining. Error bars indicate ±SE (n=3).
Cell cycle analysis—A172 cells were seeded in 6-well TC plate at a concentration of 4×10^5 cells in 2 mL of SFM per well. Following 24 hours incubation, cells were treated with indicated treatments in complete medium for 24 hours. Methanol and doxorubicin were used as negative and positive controls, respectively. Cells were harvested and centrifuged for 5 minutes at 1600 rpm. Cell pellets were washed once with 1 mL of PBS and fixed with 70% cold ethanol overnight at −20° C. The fixed cells were washed twice with 1 mL of PBS and stained with 250 μL of PI solution (50 μg/mL) containing RNase A (100 μg/mL) for 30 minutes in dark conditions. 250 μL PBS was added to each tube and the cells were analyzed using FACS.

MAPK4 gene = assay: Quantitative PCR of MAPK4 gene in HTB75 cell line; format: cell-based; details: 2 h, relative to control
Description: FIG. 24 is a graph showing quantitative PCR-based determination of the RNA steady state level in HTB75 cell line of MAPK4 gene, after treatment with niraparib, F5, F7 or combination of niraparib+F5 or niraparib+F7, for 2 h relative to control. Gene transcript values were determined by quantitative PCR as a ratio between the target gene versus a reference gene (Hypoxanthine Phosphoribosyltransferasel; HPRT1; geneID 3251). Values were calculated relative to the average expression of target genes in treated versus control using the 2ΔΔCt method. Control (methanol) treatment served as solvent (vehicle) control; Error bars indicate ±s.e.m. (n=3).

HTB75 cells [4] = assay: Apoptosis/necrosis, annexin V-FITC and PI FACS, HTB75; format: cell-based; details: 48 h; niraparib 5.1, F5 19.1, F7 19.4, F5-SM 17.4, F7-SM 16.3 μg/mL; vehicle control 17.3%
Description: as §3
Apoptosis assay—Apoptosis for the A172 cell line was assessed using MEBCYTO Apoptosis Kit with Annexin V-FITC and PI (MBL, Enco, 4700). Staining was carried out according to manufacturer's instructions. In brief, cells were seeded in a 6-well TC plate, at a density of 4×10^5 cells in 2 mL of SFM per well. 24 hours following seeding, cells were treated with the indicated treatments in complete medium for 48 hours. Following incubation, cells were harvested using trypsin and centrifuged for 5 minutes at 1600 rpm. Cell pellets were resuspended and washed twice with 1 mL of PBS. The cells in each sample were resuspended in 85 μL of Annexin binding buffer. Cells were stained using 10 μL of Annexin V-FITC solution and 5 μL of propidium iodide (PI) working solution followed by incubation in the dark at room temperature for 15 minutes. Then 400 μL of Annexin V binding buffer was added to each tube and flow cytometry was performed using a Gallios flow cytometer (FACS). Cells were considered apoptotic if they were Annexin V+/PI− (early apoptosis) or Annexin V+/PI+ (late apoptosis). Live cells were defined as Annexin V−/PI−, and Annexin V−/PI+ as necrosis.

[5] = given orally per mouse; reference [2]; cited from earlier work

## Nc1ccn([C@@H]2O[C@H](CO)[C@@H](O)C2(F)F)c(=O)n1 [Gemcitabine]
HTB75 cells [1]
  synergy of gemcitabine with F5, F7, F5-SM, F7-SM: no considerable synergy

## CC(C)c1ccc(NC(=O)Cn2cnc3c2c(=O)n(C)c(=O)n3C)cc1 [TRPA1 B, HC-030031]
[2]
  effect of IA, AN or B alone on HTB75 cell viability: did not affect HTB75 cell viability
A172 GBM cells; 48 hours
  effect of IA, AN or B alone on A172 cell viability: reduced A172 cell viability to a minor, non-significant extent

## CCCCCc1cc(O)c(C/C=C(\C)CCC=C(C)C)c(O)c1 [CBG, cannabigerol]
A172 cells
  inhibition of cell migration in comparison to the vehicle control: 2.8%
A172 GBM cells
  IC50: 5 µg/mL

## SR144528 [CB2 IA]
[2]
  effect of IA, AN or B alone on HTB75 cell viability: did not affect HTB75 cell viability
A172 GBM cells; 48 hours
  effect of IA, AN or B alone on A172 cell viability: reduced A172 cell viability to a minor, non-significant extent

## NC(=O)c1cccc2cn(-c3ccc([C@@H]4CCCNC4)cc3)nc12 [niraparib]
HTB75 cells [3]
  percentage of cells in S phase: 48.3%
MAPK4 gene
  MAPK4 expression: reduced
HTB75 cells [4]
  cell apoptosis: 64.1%

## CCCCCc1cc(O)c2c(c1)OC(C)(C)[C@@H]1CCC(C)=C[C@@H]21 [THC, Tetrahydrocannabinol]
A172 cells
  inhibition of cell migration in comparison to the vehicle control: 12.5%
[2]; fixed total concentration 13 and 15 μg/mL, ratios as in F5 or F7
  effectiveness of phytocannabinoid combinations on HTB75 viability: less effective than various combinations of THC, CBC, CBG and CBN
A172 GBM cells
  IC50: 4.83 µg/mL

## COc1cccc(NC(=O)/C=C/c2ccc(Cl)cc2)c1 [TRPV1 AN, SB-366791]
[2]
  effect of IA, AN or B alone on HTB75 cell viability: did not affect HTB75 cell viability
A172 GBM cells; 48 hours
  effect of IA, AN or B alone on A172 cell viability: reduced A172 cell viability to a minor, non-significant extent

## Cn1nnc2c(C(N)=O)ncn2c1=O [TMZ, temozolomide]
A172 GBM cells; up to 50 μg/mL, 48 hours
  effect on A172 viability / cell death: no effect

## Cc1c(C(=O)NN2CCCCC2)nn(-c2ccc(Cl)cc2Cl)c1-c1ccc(I)cc1 [AM251]
[2]
  effect of IA, AN or B alone on HTB75 cell viability: did not affect HTB75 cell viability
A172 GBM cells; 48 hours
  effect of IA, AN or B alone on A172 cell viability: reduced A172 cell viability to a minor, non-significant extent

## CO [methanol]
[5]
  LD50: ~7300 mg/kg
